This passage reports IC50 results from patent US20250034125A1, “COMPOUNDS AND USES THEREOF” (JANSSEN PHARMACEUTICA NV, priority 2019, published 2025).

One assay addresses T1, SCD5 (Homo sapiens, UniProt Q86SK9).
T1 construct: host or cells: Saccharomyces cerevisiae ole1Δ strain (W303 pdr1Δ pdr3Δ background), plasmid pRS316, TDH3 promoter
T1 sequence (Q86SK9 1-330): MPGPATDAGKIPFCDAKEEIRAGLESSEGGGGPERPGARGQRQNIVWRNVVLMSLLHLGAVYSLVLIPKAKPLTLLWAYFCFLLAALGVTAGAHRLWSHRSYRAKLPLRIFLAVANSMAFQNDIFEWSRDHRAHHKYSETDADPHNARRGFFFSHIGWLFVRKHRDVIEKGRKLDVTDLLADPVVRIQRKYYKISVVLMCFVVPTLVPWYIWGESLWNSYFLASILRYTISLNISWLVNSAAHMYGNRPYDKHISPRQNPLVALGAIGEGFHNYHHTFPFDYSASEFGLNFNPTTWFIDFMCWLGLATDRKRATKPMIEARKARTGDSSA
As to the kind of experiment: Growth inhibition of yeast (ole1Δ) expressing human SCD5 as the sole desaturase. In kind it is cell-based.

For a further assay, the target named is T2, SCD1 (Homo sapiens, UniProt O00767).
T2 construct: host or cells: Saccharomyces cerevisiae ole1Δ strain (W303 pdr1Δ pdr3Δ background), plasmid pRS316, TDH3 promoter
T2 sequence (O00767 1-359): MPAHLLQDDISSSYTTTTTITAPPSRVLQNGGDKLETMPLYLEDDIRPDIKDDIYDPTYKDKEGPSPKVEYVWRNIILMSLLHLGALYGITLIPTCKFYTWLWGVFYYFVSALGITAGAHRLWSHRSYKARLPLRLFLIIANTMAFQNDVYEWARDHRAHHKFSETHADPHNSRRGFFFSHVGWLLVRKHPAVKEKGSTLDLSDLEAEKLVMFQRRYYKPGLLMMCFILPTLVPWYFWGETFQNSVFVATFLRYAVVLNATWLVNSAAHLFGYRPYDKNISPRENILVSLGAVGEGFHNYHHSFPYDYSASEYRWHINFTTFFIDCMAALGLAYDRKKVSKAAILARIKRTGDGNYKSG
As to the kind of experiment: Growth inhibition of yeast (ole1Δ) expressing human SCD1 as the sole desaturase. Format: cell-based.

Setting [1] is: yeast strain with SCD5 plasmid, OD600 growth read at 40 h, read-out: SCD5 IC50.
Setting [2] is: yeast strain with SCD1 plasmid, OD600 growth read at 40 h, read-out: SCD1 IC50.

SMILES strings stand for the structures. Like-named read-outs stand apart in the source and are kept apart here.

For orientation: IC50 means the concentration at which inhibition is half-maximal. Consider `Cn1nc(NC(=O)N2CCC(Oc3ccccc3)CC2)ccc1=O` [Compound 67, N-(1-methyl-6-oxo-1,6-dihydropyridazin-3-yl)-4-phenoxypiperidine-1-carboxamide], for which the IC50 on SCD5 (setting [1]) turned out to be 2.1 µM; at SCD1 (setting [2]), 3.98 µM.

For `Cn1nc(NC(=O)N2CCC(Oc3cccc(Cl)c3)CC2)ccc1=O` [Compound 68, 4-(3-chlorophenoxy)-N-(1-methyl-6-oxo-1,6-dihydropyridazin-3-yl)piperidine-1-carboxamide], the IC50 at SCD5 (setting [1]) came out at 0.06 µM; on SCD1 (setting [2]) it was 0.26 µM.

Turning to `Cn1nc(NC(=O)N2CCC(Oc3ccccc3Cl)CC2)ccc1=O` [Compound 69], the IC50 stood at 0.15 µM at SCD5 (setting [1]) and 0.42 µM on SCD1 (setting [2]).

As to `Cn1nc(NC(=O)N2CCC(Oc3ccc(Cl)cc3)CC2)ccc1=O` [Compound 71], the values for the half-inhibitory concentration (IC50) on SCD5 (setting [1]) and on SCD1 (setting [2]) were 4.96 µM and 13.3 µM, respectively.

Consider `Cc1ccccc1OC1CCN(C(=O)Nc2ccc(=O)n(C)n2)CC1` [Compound 72, N-(1-methyl-6-oxo-1,6-dihydropyridazin-3-yl)-4-(o-tolyloxy) piperidine-1-carboxamide], for which the IC50 at SCD5 (setting [1]) was 0.28 µM; at SCD1 (setting [2]), 0.43 µM.

In the case of `COc1ccccc1OC1CCN(C(=O)Nc2ccc(=O)n(C)n2)CC1` [Compound 73, 4-(2-methoxyphenoxy)-N-(1-methyl-6-oxo-1,6-dihydropyridazin-3-yl)piperidine-1-carboxamide], the figures for the 50% inhibitory concentration (IC50) on SCD5 (setting [1]) and on SCD1 (setting [2]) were 12.5 µM and 31.9 µM, respectively.

Regarding `Cn1nc(NC(=O)N2CCC(Oc3cccc(C(F)(F)F)c3)CC2)ccc1=O` [Compound 74, N-(1-methyl-6-oxo-1,6-dihydropyridazin-3-yl)-4-(3-(trifluoromethyl)phenoxy) piperidine-1-carboxamide], the IC50 on SCD5 (setting [1]) worked out at 0.04 µM; at SCD1 (setting [2]), 0.02 µM.

Regarding `Cn1nc(NC(=O)N2CCC(Oc3ccccc3C(F)(F)F)CC2)ccc1=O` [Compound 75, N-(1-methyl-6-oxo-1,6-dihydropyridazin-3-yl)-4-(2-(trifluoromethyl)phenoxy) piperidine-1-carboxamide], the IC50 on SCD5 (setting [1]) worked out at 0.07 µM; on SCD1 (setting [2]) it was 0.22 µM.

With `Cn1nc(NC(=O)N2CCC(Oc3ccc(C(F)(F)F)cc3)CC2)ccc1=O` [Compound 76, N-(1-methyl-6-oxo-1,6-dihydropyridazin-3-yl)-4-(4-(trifluoromethyl)phenoxy) piperidine-1-carboxamide], the IC50 on SCD5 (setting [1]) worked out at 4.8 µM; on SCD1 (setting [2]) it was 9.77 µM.

Regarding `Cn1nc(NC(=O)N2CCC(Oc3cc(F)cc(F)c3)CC2)ccc1=O` [Compound 79, 4-(3,5-difluorophenoxy)-N-(1-methyl-6-oxo-1,6-dihydropyridazin-3-yl)piperidine-1-carboxamide], the IC50 turned out to be 0.2 µM at SCD5 (setting [1]) and 0.48 µM on SCD1 (setting [2]).

For the compound `Cn1nc(NC(=O)N2CCC(Oc3ccc(F)c(F)c3)CC2)ccc1=O` [Compound 80], the figures for the IC50 at SCD5 (setting [1]) and at SCD1 (setting [2]) were 1.19 µM and 1.98 µM, respectively.

Consider `Cn1nc(NC(=O)N2CCC(Oc3cccc(Cl)c3Cl)CC2)ccc1=O` [Compound 81, 4-(2,3-dichlorophenoxy)-N-(1-methyl-6-oxo-1,6-dihydropyridazin-3-yl)piperidine-1-carboxamide], for which the 50% inhibitory concentration (IC50) at SCD5 (setting [1]) was 0.15 µM; on SCD1 (setting [2]) it was 0.06 µM.

For `Cn1nc(NC(=O)N2CCC(Oc3cc(F)ccc3Cl)CC2)ccc1=O` [Compound 82, 4-(2-chloro-5-fluorophenoxy)-N-(1-methyl-6-oxo-1,6-dihydropyridazin-3-yl)piperidine-1-carboxamide], the values for the half-maximal inhibitory concentration (IC50) at SCD5 (setting [1]) and on SCD1 (setting [2]) were 0.02 µM and 0.05 µM, respectively.

Regarding `Cn1nc(NC(=O)N2CCC(Oc3ccc(F)cc3Cl)CC2)ccc1=O` [Compound 83, 4-(2-chloro-4-fluorophenoxy)-N-(1-methyl-6-oxo-1,6-dihydropyridazin-3-yl)piperidine-1-carboxamide], the concentration for half-maximal inhibition (IC50) came to 6.21 µM at SCD5 (setting [1]) and 4.36 µM at SCD1 (setting [2]).

Regarding `Cn1nc(NC(=O)N2CCC(Oc3cccc(F)c3C(F)(F)F)CC2)ccc1=O` [Compound 84], the IC50 came to 0.17 µM at SCD5 (setting [1]) and 0.43 µM on SCD1 (setting [2]).

On to `Cn1nc(NC(=O)N2CCC(Oc3ccc(F)cc3C(F)(F)F)CC2)ccc1=O` [Compound 85], for which the results for the IC50 at SCD5 (setting [1]) and at SCD1 (setting [2]) were 0.05 µM and 0.08 µM, respectively.

On to `Cn1nc(NC(=O)N2CCC(Oc3cc(F)ccc3C(F)(F)F)CC2)ccc1=O` [Compound 86, 4-(5-fluoro-2-(trifluoromethyl)phenoxy)-N-(1-methyl-6-oxo-1,6-dihydropyridazin-3-yl)piperidine-1-carboxamide], for which the IC50 at SCD5 (setting [1]) and on SCD1 (setting [2]) was 0.01 µM in each case.

Consider `Cn1nc(NC(=O)N2CCC(Oc3cccc(C#N)c3Cl)CC2)ccc1=O` [Compound 87, 4-(2-chloro-3-cyanophenoxy)-N-(1-methyl-6-oxo-1,6-dihydropyridazin-3-yl)piperidine-1-carboxamide], for which the IC50 at SCD5 (setting [1]) and on SCD1 (setting [2]) was above 45 µM in each case.

Take `Cn1nc(NC(=O)N2CCC(Oc3ccc(C(F)(F)F)c(F)c3)CC2)ccc1=O` [Compound 88, 4-(3-fluoro-4-(trifluoromethyl)phenoxy)-N-(1-methyl-6-oxo-1,6-dihydropyridazin-3-yl)piperidine-1-carboxamide]: the IC50 at SCD5 (setting [1]) is 0.03 µM; on SCD1 (setting [2]), 0.07 µM.

In the case of `Cn1nc(NC(=O)N2CCC(Oc3cc(F)c(F)c(Cl)c3)CC2)ccc1=O` [Compound 89, 4-(3-chloro-4,5-difluorophenoxy)-N-(1-methyl-6-oxo-1,6-dihydropyridazin-3-yl)piperidine-1-carboxamide], the IC50 at SCD5 (setting [1]) is 0.06 µM; on SCD1 (setting [2]), 0.26 µM.

In the case of `Cn1nc(NC(=O)N2CCC(Oc3cc(F)c(F)c(C#N)c3)CC2)ccc1=O` [Compound 90, 4-(3-cyano-4,5-difluorophenoxy)-N-(1-methyl-6-oxo-1,6-dihydropyridazin-3-yl)piperidine-1-carboxamide], the values for the IC50 at SCD5 (setting [1]) and at SCD1 (setting [2]) were 7.18 µM and 10.3 µM, respectively.

Consider `Cn1nc(NC(=O)N2CCC(Nc3ccccc3C(F)(F)F)CC2)ccc1=O` [Compound 92, N-(1-methyl-6-oxo-1,6-dihydropyridazin-3-yl)-4-(2-(trifluoromethyl)phenylamino) piperidine-1-carboxamide], for which the IC50 worked out at 0.39 µM at SCD5 (setting [1]) and 2.4 µM at SCD1 (setting [2]).

With `Cn1nc(NC(=O)N2CCC(Nc3cc(F)cc(Cl)c3)CC2)ccc1=O` [Compound 93, 4-((3-chloro-5-fluorophenyl)amino)-N-(1-methyl-6-oxo-1,6-dihydropyridazin-3-yl)piperidine-1-carboxamide], the IC50 was 15 µM against SCD5 and above 45 µM against SCD1.

As for `Cn1nc(NC(=O)N2CCC(Nc3cc(F)cc(F)c3)CC2)ccc1=O` [Compound 94, 4-((3,5-difluorophenyl)amino)-N-(1-methyl-6-oxo-1,6-dihydropyridazin-3-yl)piperidine-1-carboxamide], the IC50 against SCD5 and at SCD1 was above 45 µM each time.

With `CN(c1cc(F)cc(F)c1)C1CCN(C(=O)Nc2ccc(=O)n(C)n2)CC1` [Compound 95], the figures for the IC50 at SCD5 (setting [1]) and on SCD1 (setting [2]) were 12 µM and above 45 µM, respectively.

In the case of `Cn1nc(NC(=O)N2CCC(OCc3cccc(F)c3)CC2)ccc1=O` [Compound 96, 4-(3-fluorobenzyloxy)-N-(1-methyl-6-oxo-1,6-dihydropyridazin-3-yl)piperidine-1-carboxamide], the IC50 at SCD5 (setting [1]) is 26.4 µM; at SCD1 (setting [2]), above 45 µM.

Regarding `Cn1nc(NC(=O)N2CCC(OCc3ccccc3F)CC2)ccc1=O` [Compound 97, 4-(2-fluorobenzyloxy)-N-(1-methyl-6-oxo-1,6-dihydropyridazin-3-yl)piperidine-1-carboxamide], the IC50 was 26.1 µM on SCD5 (setting [1]) and above 45 µM at SCD1 (setting [2]).

Take `Cn1nc(NC(=O)N2CCC(COc3ccccc3Cl)CC2)ccc1=O` [Compound 98, 4-((2-chlorophenoxy)methyl)-N-(1-methyl-6-oxo-1,6-dihydropyridazin-3-yl)piperidine-1-carboxamide]: the IC50 on SCD5 (setting [1]) is 1.35 µM; on SCD1 (setting [2]), 5.18 µM.

For `Cn1nc(NC(=O)N2CCC(COc3ccccc3F)CC2)ccc1=O` [Compound 99, 4-((2-fluorophenoxy)methyl)-N-(1-methyl-6-oxo-1,6-dihydropyridazin-3-yl)piperidine-1-carboxamide], the IC50 at SCD5 (setting [1]) was found to be 6.87 µM; on SCD1 (setting [2]), 32.5 µM.

For the compound `Cn1nc(NC(=O)N2CCC(COc3ccccc3C(F)(F)F)CC2)ccc1=O` [Compound 100, N-(1-methyl-6-oxo-1,6-dihydropyridazin-3-yl)-4-((2-(trifluoromethyl)phenoxy)methyl)piperidine-1-carboxamide], the results for the IC50 at SCD5 (setting [1]) and at SCD1 (setting [2]) were 0.22 µM and 4.49 µM, respectively.

As to `Cn1nc(NC(=O)N2CCC(COc3cccc(F)c3)CC2)ccc1=O` [Compound 101, 4-((3-fluorophenoxy)methyl)-N-(1-methyl-6-oxo-1,6-dihydropyridazin-3-yl)piperidine-1-carboxamide], the IC50 at SCD5 (read-out: SCD5 IC50) and at SCD1 (read-out: SCD1 IC50) was above 45 µM throughout.
